Data as given in paper PMC4474874, “Effect of JAK Inhibitors on Release of CXCL9, CXCL10 and CXCL11 from Human Airway Epithelial Cells” (PLoS ONE, 2015).
Read-outs that look alike come from different tables or passages of the source.

Assays:
STAT-1 = STAT-1 phosphorylation in human primary airway epithelial cells (western blot); type: cell-based; conditions: 1μM inhibitor 1h, IFNγ and IFNγ + TNFα 10 min
Method: Enhanced chemiluminescence (ECL) reagent and Hybond-ECL nitrocellulose were obtained from GE Healthcare (Little Chalfont, UK). Bis-Tris SDS-PAGE (4–12%) gels and buffers were purchased from Invitrogen Ltd (Paisley, Scotland, UK). Antibodies against phosphorylated and total STAT-1 were purchased from New England Biolabs (Hitchin, UK). Epithelial cells were treated as indicated in six-well plates and lysed in 10 mM Tris-HCl buffer (pH 7.5) containing 150 mM NaCl, 2 mM EDTA, 1 mM sodium orthovanadate, 1% (v/v) Triton X-100, 1 mM phenylmethylsulfonyl fluoride, 10 μg/ml leupeptin, and 10 μg/ml aprotinin) for 30 min on ice. The lysates were then centrifuged at 12,000g for 15 min and protein concentration determined using the BCA protein assay (BioRad, Hemel Hempstead, UK). The proteins within the lysates (20 μg) were resolved with 4–12% Bis-Tris gels and transferred onto nitrocellulose membranes. The membranes were then blocked with 5% (w/v) non-fat milk in TBS containing 0.1% (v/v) Tween 20 for 1 h at room temperature and then incubated with antibodies specific for pSTAT-1 overnight at 4°C. The primary antibody was detected with peroxidase-conjugated secondary antibodies and labelled proteins were detected by ECL.
Cells were harvested and western blots performed for phosphorylated STAT-1 and total STAT-1 and quantified by densitometry. […]

[1] = system: human primary airway epithelial cells; assay: Release of CXCL9, CXCL10 and CXCL11 from human primary airway epithelial cells (ELISA); type: cell-based; conditions: pre-treated 1h; for IC50: pooled primary cells
Method: (§1) BEAS-2B cells (catalogue number CRL-9609) were purchased directly from American Type Culture Collection (Rockville, MD). Keratinocyte serum-free medium (K-SFM), bovine pituitary extract (BPE), and recombinant human epidermal growth factor (EGF) were purchased from Invitrogen (Paisley, UK). BEAS-2B cells were cultured in K-SFM containing 50 μg/ml BPE and 5 ng/ml EGF at 37°C in a humidified atmosphere comprising 5% (v/v) CO2 in air. Cells were cultured as monolayers in growth factor-free media for 24 h prior to stimulation. Human primary airway epithelial cells were cultured as monolayers from bronchial brushings from both male and female subjects (Table 1) and cultured in LHC-9 media (Invitrogen, Paisley, UK) in collagen (1% w/v) coated flasks. Samples were obtained from non-smokers, smokers and patients with COPD. […] The subjects were matched for age and smokers and COPD patients for smoking history (Table 1). All subjects gave informed written consent and the study was approved by the NRES London-Chelsea Research Ethics committee, study number 09/H0801/85.
(§2) Cell-free supernatants were removed 20h post-stimulation and assayed for CXCL9, CXCL10 and CXCL11 using Duoset ELISA kits (R & D Systems Europe, Abingdon, UK) according to the manufacturer’s instructions. The detection limits of these assays are 62pg/ml, 31pg/ml, and 7.8 pg/ml respectively.
(§3) Data are presented as mean ± SEM of ‘n’ independent determinations. Concentration-response curves were analysed by least-squares, non-linear iterative regression with the ‘Graphpad Prism’ curve fitting program (GraphPad software, San Diego, USA) and IC50 values were subsequently interpolated from curves of best-fit. Statistical differences were determined using the Kruskal–Wallis test followed by Dunn's multiple comparison test or a Wilcoxon signed rank test as appropriate. Values of P<0.05 were considered significant.
Media was harvested and the concentrations of CXCL9 (panels a and d), CXCL10 (panels b and e) and CXCL11 (panels c and f) were measured by ELISA. Data are presented as mean ± SEM, n = 10–13.

BEAS-2B cells = assay: Release of CXCL9, CXCL10 and CXCL11 from BEAS-2B cells (ELISA), inhibitors added 1h before stimulus; type: cell-based, human; conditions: for IC50: BEAS-2B, pre-treated 1h
Method: as §1, §2, §3
Media was harvested and the concentrations of CXCL9 (panels a and d), CXCL10 (panels b and e) and CXCL11 (panels c and f) were measured by ELISA. Data are presented as mean±SEM, n = 7–8.

STAT-3 = STAT-3 DNA binding in BEAS-2B cells (TransAM); type: cell-based, human; conditions: IFNγ + TNFα, inhibitor 10^-6M
Method: STAT phosphorylation, nuclear translocation and DNA binding was determined using TransAM assays (Actif Motif, Rixensart, Belgium). Cells were treated with JAK inhibitors for 30 min prior to stimulation for 1h. Nuclear extracts were prepared using the Actif Motif assay reagents. Briefly, the nuclear extracts (10 μg) were incubated in DNA coated plates for 1h. After washing, antibodies supplied with the TransAM kit that were specific for the active forms of STAT1, STAT3, STAT5A and STAT5B were added to the wells and incubated for a further hour. The plates were washed and a secondary HRP-labelled anti-goat Ig antibody was added and the plates incubated for an hour. After washing, the assay was developed using the TMB substrate provided and the reaction stopped using 2N sulphuric acid. The plates were read at 450nm with a reference filter of 610nm. Data were then normalised to non-stimulated cells and calculated as fold change from baseline.
After 1 h, nuclear extracts of the cells were prepared and TransAM assays for STAT-1 (panel a) and STAT-3 (panel b) were performed. Data are presented as fold change from baseline ± SEM; n = 4.

[2] = system: BEAS-2B and human primary airway epithelial cells; assay: Cell viability, MTT assay; type: cell-based
Method: Cell viability was determined colorimetrically by measuring the reduction of 3-[4,5-dimethylthiazol-2-yl]-2,5-diphenyltetrazolium bromide, MTT, to formazan by mitochondrial dehydrogenases, as described previously.
In order to determine whether any of the inhibitory effects of the JAK inhibitors could be attributed to cell death, MTT assays were performed at the end of every experiment. […] In order to address this issue, the levels of IL-6 released from cells stimulated with IFNγ + TNFα were measured.

[3] = IFNγ (10ng/ml) 20h, read-out: IC50, release of CXCL9
[4] = IFNγ (10ng/ml) 20h, read-out: IC50, release of CXCL10
[5] = IFNγ (10ng/ml) 20h, read-out: IC50, release of CXCL11
[6] = IFNγ+TNFα (10ng/ml) 20h, read-out: IC50, release of CXCL9
[7] = IFNγ+TNFα (10ng/ml) 20h, read-out: IC50, release of CXCL10

Compound: C[C@@H]1CCN(C(=O)N2CCCC2)C[C@@H]1N(C)c1ncnc2[nH]ccc12 [PF956980]
- effect on phosphorylation of STAT-1 (STAT-1): suppressed
- IC50 [1, 3]: 680 ± 120 nM
- IC50 [1, 4]: 960 ± 190 nM
- IC50 [1, 5]: 760 ± 120 nM
- IC50 [1, 6]: 520 ± 170 nM
- IC50 [1, 7]: 2120 ± 240 nM
- IC50 ([1]; IFNγ+TNFα (10ng/ml) 20h, read-out: IC50, release of CXCL11): 1580 ± 330 nM
- EC50 ([1]; primary cells from COPD patients, IFNγ (10 ng/ml) 20h, read-out: EC50, release of CXCL9): 630 ± 90 nM
- EC50 ([1]; primary cells from COPD patients, IFNγ (10 ng/ml) 20h, read-out: EC50, release of CXCL10): 530 ± 10 nM
- EC50 ([1]; primary cells from COPD patients, IFNγ (10 ng/ml) 20h, read-out: EC50, release of CXCL11): 820 ± 250 nM
- EC50 ([1]; primary cells from COPD patients, IFNγ +TNFα (10 ng/ml) 20h, read-out: EC50, release of CXCL9): 590 ± 380 nM
- EC50 ([1]; primary cells from COPD patients, IFNγ +TNFα (10 ng/ml) 20h, read-out: EC50, release of CXCL10): 1840 ± 400 nM
- EC50 ([1]; primary cells from COPD patients, IFNγ +TNFα (10 ng/ml) 20h, read-out: EC50, release of CXCL11): 1920 ± 670 nM
- EC50 ([1]; primary cells from non-smokers, IFNγ (10 ng/ml) 20h, read-out: EC50, release of CXCL9): 880 ± 390 nM
- EC50 ([1]; primary cells from non-smokers, IFNγ (10 ng/ml) 20h, read-out: EC50, release of CXCL10): 810 ± 150 nM
- EC50 ([1]; primary cells from non-smokers, IFNγ (10 ng/ml) 20h, read-out: EC50, release of CXCL11): 660 ± 240 nM
- EC50 ([1]; primary cells from non-smokers, IFNγ +TNFα (10 ng/ml) 20h, read-out: EC50, release of CXCL9): 610 ± 260 nM
- EC50 ([1]; primary cells from non-smokers, IFNγ +TNFα (10 ng/ml) 20h, read-out: EC50, release of CXCL10): 2720 ± 360 nM
- EC50 ([1]; primary cells from non-smokers, IFNγ +TNFα (10 ng/ml) 20h, read-out: EC50, release of CXCL11): 1850 ± 670 nM
- EC50 ([1]; primary cells from smokers, IFNγ (10 ng/ml) 20h, read-out: EC50, release of CXCL9): 550 ± 90 nM
- EC50 ([1]; primary cells from smokers, IFNγ (10 ng/ml) 20h, read-out: EC50, release of CXCL10): 1280 ± 360 nM
- EC50 ([1]; primary cells from smokers, IFNγ (10 ng/ml) 20h, read-out: EC50, release of CXCL11): 780 ± 160 nM
- EC50 ([1]; primary cells from smokers, IFNγ +TNFα (10 ng/ml) 20h, read-out: EC50, release of CXCL9): 350 ± 260 nM
- EC50 ([1]; primary cells from smokers, IFNγ +TNFα (10 ng/ml) 20h, read-out: EC50, release of CXCL10): 1880 ± 410 nM
- EC50 ([1]; primary cells from smokers, IFNγ +TNFα (10 ng/ml) 20h, read-out: EC50, release of CXCL11): 870 ± 130 nM
- IC50 (BEAS-2B cells; [3]): 400 ± 100 nM
- IC50 (BEAS-2B cells; [4]): 600 ± 300 nM
- IC50 (BEAS-2B cells; [5]): 500 ± 100 nM
- IC50 (BEAS-2B cells; [6]): 600 ± 100 nM
- IC50 (BEAS-2B cells; [7]): 2200 ± 300 nM
- effect on IFNγ-stimulated release of CXCL9, CXCL10 and CXCL11 (BEAS-2B cells; present study, IFNγ-stimulated): completely attenuated
- effect on STAT-3 binding to DNA (STAT-3): suppressed
- effect on cell viability (MTT) ([2]; any of the concentrations used in this study): no effect on cell viability
- cell viability compared to untreated cells (MTT) ([2]; at 10^-6M and at all concentrations below this): no alterations in cell viability
